Data: PMC9888311, “Neonatal NET-Inhibitory Factor improves survival in the cecal ligation and puncture model of polymicrobial sepsis by inhibiting neutrophil extracellular traps” (Frontiers in Immunology, 2023)
Where no end group is shown, it is not given here.

Experiments:
[1] = test system: TNF-α; experiment: Peritoneal fluid cytokine multiplex array, TNF-α; type: in vivo, mouse (outbred Swiss Webster); conditions: 24 h after CLP; nNIF 1 mg/kg at 4 and 10 hours; compared to all other treatment groups; N=5-9
Protocol: (§1) Peritoneal fluid cytokines were analyzed using a mouse Cytokine/Chemokine Panel I Multiplex Array (Millipore Sigma catalog# HCYTMAG60-PMX41) according to manufacturer’s instructions on a Luminex 200 instrument. Bacterial counts in whole blood and peritoneal lavage were determined 24 hours after CLP. Briefly, peritoneal fluid and blood samples were collected, serially diluted, plated on LB-agar dishes, and incubated at 37°C for 24 hours. The number of bacterial colonies was counted and expressed as CFU/mL.

[2] = test system: whole blood leukocytes; experiment: Whole blood WBC and neutrophil counts (flow cytometry); type: in vivo, mouse (outbred Swiss Webster); conditions: 24 hours after CLP; nNIF 1 mg/kg IV at 4 and 10 hours after CLP; N=3-5
Protocol: (§2) Twenty-four hours after CLP or sham surgery, total white blood cell and differential neutrophil counts were determined both in whole blood samples collected from orbital vein using heparinized capillaries tubes and peritoneal fluid by washing with 3 mL of PBS, respectively. Then, samples were incubated with CD45 APC-Cy7 (Biolegend), CD11b PE-Cy7 (EBioscience), Ly6G BV510 (Biolegend), and CD16/CD32 (Fc-block, EBioscience) for 30 minutes at 37 °C. Thirty minutes later, cells were washed, fixed, and ran on a Beckman Coulter Cytoflex located in the University of Utah Flow Cytometry Core.

[3] = test system: IL-10; experiment: Peritoneal fluid cytokine multiplex array, IL-10; type: in vivo, mouse (outbred Swiss Webster); conditions: 24 h after CLP; nNIF 1 mg/kg at 4 and 10 hours; N=5-9
Protocol: as §1

[4] = single dose 10 mg/kg, retro-orbital venous injection; LC/MS/MS; N=2-3 mice/time point
Protocol: PK plasma sample generation – Mature Swiss-Webster mice were inject ed with nNIF (10 mg/kg,
0.003% DMSO in PBS) via retro-orbital venous injection. Blood samples were obtain ed via
cheek bleed and cardiac puncture at 5, 15, 30, and 45 minutes, and at 1, 4, 8, 12, 24, and 48 hours
after nNIF injection. Only three blood samples were drawn from each indiv idual mouse, and
multiple mice were used to generate 2 -3 plasma samples per timepoint for PK analysis. Blood
samples were collected i n heparin coated capillary tubes, centrifuged at 1000 rpm for 10 minutes,
and snap-frozen in liquid nitrogen. Plasma samples were kept frozen at -80°C until analysis.
Mouse plasma PK quantitative bioanalysis – Flash -frozen mouse samples were thawed on ice
and spiked with 100 nM nNIF-H; precipitated with five volumes of 90% acetonitrile, 1% acetic
acid, and 0.1% formic acid in water; and filtered through a Phree Phosphol ipid Removal
Extraction Plate (Pheno menex). Standards with known concent rations of nNIF (100 pM to 25
μM) and nNIF-H (100 n M) spiked into mouse plasma were p repared using the same methods.
Supernatants were an alyzed by LC/MS/MS on an ExionLC UHPLC system coupled to a QTRAP […]
positive-ion mode. Mass transitions (m/z) used for quantitation were 846.9/ 976.1 and
determined from the nNIF/nNIF-H peak area ratio in extracted-ion chromat ograms compared […]

[5] = test system: IL-6; experiment: Peritoneal fluid cytokine multiplex array, IL-6; type: in vivo, mouse (outbred Swiss Webster); conditions: 24 h after CLP; nNIF 1 mg/kg at 4 and 10 hours; N=5-9
Protocol: as §1

[6] = test system: neutrophils; conditions: neutrophils exposed to nNIF; cited from earlier work
Description: When considering the low DNA staining on confocal imaging of peritoneal leukocytes, it may be that the NET inhibition contributes to decreased endothelial dysfunction ([48]) and prevents immunothrombosis ([22]) which then leads to decreased inflammation. Alternatively, or in combination, the lack of NETs may lead to decreased opportunities to capture bacteria and thereby limit the chance that circulating PMNs will recognize and become acti ...

[7] = test system: neutrophil extracellular traps (NETs), peritoneal fluid; experiment: Peritoneal fluid NET formation (confocal live cell imaging, MPO-DNA complex ELISA); type: in vivo, mouse (outbred Swiss Webster); conditions: 24 hours after CLP; nNIF 1 mg/kg IV or meropenem 25 mg/kg IP at 4 and 10 hours after CLP; compared to vehicle, scrambled peptide and meropenem groups; N=5-9
Protocol: We evaluated mouse NET formation via live cell imaging with confocal microscopy as previously described ([12]). Sham mice and CLP animals from all experimental groups were euthanized by CO2 inhalation and the peritoneal fluid was collected. An aliquot of 100 μL of the peritoneal fluid was placed on glass coverslips coated with poly-L-lysine for 1 hour at 37°C in 5% CO2/95% air. NET formation was assessed using cell-permeable (SYTO Green, Molecular Probes) and cell-impermeable (SYTOX Orange, Molecular Probes) DNA fluorescent stains. Using a FV3000 1X81 confocal microscope and FluoView software (Olympus) with 20X and 60X objectives, we obtained z-series images over a range of 20 μm with a 1 μm step size for each field. We processed these images using FluoView (Olympus), Photoshop (Adobe), and ImageJ (NIH) software. An in-house ELISA was used to quantify MPO-DNA complexes in plasma and peritoneal fluid from sham and CLP mice 24 hours after the surgical procedure ([24], [27]). Briefly, after overnight coating with anti-MPO capture antibody in calcium carbonate coating buffer (2 µg/ml; 0400-0002, Bio-Rad) at 4°C, a 96-well plate was blocked with 2.5% bovine serum albumin in PBS for 2 hours at room temperature. The plate was subsequently washed, before incubating for 90 minutes at room temperature with 10% peritoneal fluid in blocking buffer. […]

[8] = test system: peritoneal fluid and stool microbiomes; experiment: 16S rRNA gene sequencing of peritoneal fluid and stool microbiomes; type: in vivo, mouse (outbred Swiss Webster); conditions: CLP-treated mice; for relative abundance of Enterobacteriaceae in stool and peritoneal fluid: ANCOM-BC, relative to vehicle; for Bray-Curtis distance of peritoneal fluid microbiome from stool microbiome: each group compared to vehicle
Protocol: Libraries were constructed for sequencing approximately 460 bp of the variable V3 and V4 regions of 16S rRNA using a two-step PCR process. Genomic DNA (5 to 20 ng) was PCR amplified for 14 cycles using the Quick-16S Primer Set V3-V4 (Zymo Research cat# D6405-2-400) with NEBNext Ultra II Q5 Master Mix (NEB cat# M0544). Dual unique indexing adapters (Illumina cat#20027213) were added to the amplicons during a second PCR reaction (6 cycles). 16S libraries were qualified on an Agilent Technologies 4150 TapeStation using a D1000 ScreenTape assay (cat# 5067-5582 and 5067-5583, respectively) and the molarity of adapter-modified molecules was defined by quantitative PCR using the Kapa Biosystems Kapa Library Quant Kit (cat#KK4824). Libraries were normalized and pooled (12 pM) and chemically denatured along with 15% molar representation of PhiX library in preparation for sequencing on an Illumina MiSeq instrument in paired-end 300 cycle mode. Raw 16S sequences were read in and processed with […] 2021.11 plugins ([33]). In brief, demultiplexed and quality-filtered sequences were first trimmed of primer and linker sequences with the Cutadapt plugin, then denoised to ASVs using DADA2 ([34], [35]). […] Diversity metrics, distances, and statistical significance of beta diversity groupings by permanova were further calculated within […]2 artefacts were then read into R and genera tested for differential abundances using ANCOM-BC implemented in the microbiomeMarker package ([37], [38]). Scripts used for processing and analyses have been deposited along with processed QIIME2 artifact files at: https://github.com/wzacs1/Araujo_nNIF. Raw sequences have been deposited in the NCBI SRA under BioProject accession PRJNA884333.

[9] = test system: peritoneal fluid leukocytes; experiment: Peritoneal fluid WBC and neutrophil counts (flow cytometry); type: in vivo, mouse (outbred Swiss Webster); conditions: 24 hours after CLP; nNIF 1 mg/kg IV at 4 and 10 hours after CLP; N=5-9
Protocol: as §2

KFNKPFVFLMIEQNTKSPLFMGKVVNPTQ-OH [nNIF, neonatal NET-Inhibitory Factor]
TNF-α level in peritoneal fluid [1]: decreased TNF-α levels in peritoneal fluid
whole blood white blood cell and neutrophil counts [2]: without affecting white blood cell or neutrophil counts
IL-10 level in peritoneal fluid [3]: lack of an nNIF-associated alteration in IL-10 levels
nNIF plasma concentration-time course [4]: initial rapid decrease in nNIF plasma concentrations followed by a slower rate of decay
IL-6 level in peritoneal fluid [5]: decreased compared to meropenem treated mice but not compared to the nNIF-SCR treatment group
neutrophil ability to generate reactive-oxygen species and phagocytize E. coli bioparticles [6]: still maintain their ability
peritoneal fluid NET formation (MPO-DNA complexes, confocal microscopy) [7]: reduced NET formation qualitatively and quantitatively
peritoneal fluid and stool microbiomes (beta diversity, Bray-Curtis, PERMANOVA) ([8]; 16S rRNA V3/V4 sequencing, N=5-7 per group): did not alter the peritoneal fluid and stool microbiomes
relative abundance of Enterobacteriaceae in stool and peritoneal fluid [8]: did not affect their abundances
Bray-Curtis distance of peritoneal fluid microbiome from stool microbiome [8]: as dissimilar from their stool counterparts as were vehicle controls
peritoneal WBC and neutrophil counts [9]: without altering peritoneal WBC and neutrophil counts

C[C@@H](O)[C@H]1C(=O)N2C(C(=O)O)=C(S[C@@H]3CN[C@H](C(=O)N(C)C)C3)[C@H](C)[C@H]12 [meropenem, reference compound]
peritoneal fluid NET formation (MPO-DNA complexes, confocal microscopy) [7]: equivalent between the vehicle and meropenem arms
relative abundance of Enterobacteriaceae in stool and peritoneal fluid [8]: decreased in stool and peritoneal fluid
Bray-Curtis distance of peritoneal fluid microbiome from stool microbiome [8]: more similar stool and peritoneal microbiomes
